These results are taken from patent publication US9274101B2 (BIOLOG, Inc., priority 2001, dated 2016).

The test system of test [1] is DMSO-differentiated HL-60 cells. The test can be described thus: Energy use by DMSO-differentiated HL-60 cells. To be noted: Homo sapiens, HL-60, 24 h, read-out: Energy Use by DMSO-Differentiated HL-60 Cells. The class given is cell-based, human. Summed up:
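HL-60 cells, […] differentiated with 1.25% DMSO for 3 days, were plated at 5×10^4/well in DME-R with test energy sources at 0.033–20 mM final for 24 h at 37 °C. Viability was measured by MTS/PMS at 490 nm (ref 650 nm) 24 h after reagent addition. Values were background-subtracted using cell-free plates and expressed as % of the no-energy-source control.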

Test [2] deals with HepG2 cells. The experiment in a line: HepG2 cells on flat bottom plastic wells, energy sources at a range of concentrations. The class given is cell-based, human. The conditions noted are these: Homo sapiens, HepG2, 72 h, read-out: HepG2 Cells Responses After 72 hours in Culture and a 4 hour Color Development Period. In short, it runs like this:
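HepG2 cells plated overnight at 4×10^4 cells/cm^2 in glucose-, glutamine- and pyruvate-free DME with 10% HI FBS, then exposed to each energy source at 0.033 to 20 mM final for 48 to 72 h at 37° C, 5% CO2. MTS/PMS colour read at 490 nm (reference 650 nm) after 4-24 h; cell-free plate OD subtracted, data normalised to % negative control (water, no energy source).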

As for `NC(=O)C[C@H](N)C(=O)O` [L-asparagine], the activity at 30 µM in test [1] (Conc. 0.03 mM) was 106%; in test [2] (Conc. 0.03 mM), 122%. Besides, the activity at 100 µM stood at 112% in test [1] (Conc. 0.10 mM) and 190% in test [2] (Conc. 0.10 mM). In addition, the activity at 330 µM in test [1] (Conc. 0.33 mM) stood at 122%; in test [2] (Conc. 0.33 mM) it was 203%. Further, the results for the activity at 1000 µM in test [1] (Conc. 1.00 mM) and in test [2] (Conc. 1.00 mM) were 143% and 173%, respectively. In addition, the activity at 3300 µM in test [1] (Conc. 3.3 mM) turned out to be 153%; in test [2] (Conc. 3.3 mM), 161%. The activity at 10000 µM in test [1] (Conc. 10 mM) was 167%; in test [2] (Conc. 10 mM) it was 124%. For the same compound, the activity at 15000 µM in test [1] (Conc. 15 mM) was 152%; in test [2] (Conc. 15 mM) it was 112%. For the same compound, the activity at 20000 µM in test [1] (Conc. 20 mM) was found to be 134%; in test [2] (Conc. 20 mM), 52.2%.
